Measured values: publication PMC11079024, “Identification of a family of species-selective complex I inhibitors as potential anthelmintics” (Nature Communications, 2024)
Where “and” joins values, the source holds several entries; their conditions need not be identical. Equal entries are not always repeated. Where two headings read alike, the source gives them in different places.

Experiments:
[1] = tested on: HEK293 cells; conditions: read-out: HEK293 Cell Viability Assay LC50; 2 days exposure
[2] = tested on: C. elegans; test: C. elegans chemical screens of RIKEN NPD libraries at 50 μM (hit identification in KCN survival and development/viability assays); format: cell-based, Caenorhabditis elegans
[3] = tested on: L1 wild-type C. elegans; conditions: caenorhabditis elegans
[4] = tested on: adult H. polygyrus; format: cell-based, Heligmosomoides polygyrus; conditions: for Worm viability score, individual worms (Worm1-Worm20): scale from 0 (dead) to 3 (motile)
Method: (§1) After either 24- or 72 h chemical treatment, worm viability was manually scored by an examiner using a scale from 0 (dead) to 3 (motile); DMSO was used as a negative control in both 24- and 72 h treatments. The percentage of affected worms (i.e., worms with a score equal to or lower than 1.5) in each biological replicate is shown; data are from two biological replicates. Within each boxplot, black horizontal lines denote group medians, boxes span from the 25th to the 75th percentile of each group’s distribution, and whiskers extend to the maximum and minimum values.
The eleven benzimidazole derivatives were tested at a concentration of 10 µM under aerobic conditions against L3 and adult H. polygyrus.
For the larval assay, mice feces were collected 2 weeks post-infection and eggs were isolated. The eggs were left on agar at room temperature in the dark for eight to 10 days to allow them to develop into L3. Next, 30–40 L3 were incubated (37 °C, 5% CO2) in the culture medium (RPMI 1640 medium + 1% pen./strep. + 5% amphotericin B) containing the derivatives in 96-well plate (Corning, USA) reaching a final volume of 250 µL for 24 h. For the adult drug screening assay, female NMRI mice were euthanized with CO2 and adult H. polygyrus were dissected out of the intestines. Subsequently, three worms were exposed to the culture medium (RPMI 1640 medium + 1% pen./strep. + 5% amphotericin B) with the derivatives (2 mL) in a 24-well plate (Corning, USA) for either 24 or 72 h. DMSO ( < 1%) served as a negative control in both assays. All conditions were tested in duplicates. Finally, 80 µL of hot water ( ~ 80 °C) for L3 and 500 µL of hot water (~80 °C) for adults were added to the wells to check for their viability under a microscope (Carl Zeiss, Germany). Larvae were categorized as being either alive or dead, depending on whether they moved or not. […] The whole experiment was performed two times i.e., two independent biological replicates for both life stages (L3s and adults) and exposure times (24 and 72 h).

[5] = tested on: adult H. polygyrus; test: microbe, parasite or virus in culture; format: cell-based, Heligmosomoides polygyrus; conditions: anaerobic, 24 hours after treatment; for Percent Worms Affected: adult H. polygyrus, affected = score equal to or lower than 1.5; for # of Worms Affected: worms with score equal to or lower than 1.5; for Worm viability score, individual worms (Worm1-Worm20): scale from 0 (dead) to 3 (motile)
Method: To investigate the impact of the eleven benzimidazole derivatives under anaerobic conditions, an anaerobic chamber with an integrated incubator (Coy Laboratory Products, USA) was used. The same procedure was followed as described for the aerobic drug screening in adult H. polygyrus, but the incubation took place within the anaerobic chamber (37 °C, 85% N2, 10% CO2, 5% H2). Benzimidazole derivatives were tested at a concentration of 10 µM. For scoring, the plates had to be removed from the anaerobic chamber. The whole experiment was performed two times i.e., two independent biological replicates.
as §1, with “The activities of eleven benzimidazole derivatives were tested against adult H. polygyrus viability in vitro under aerobic (+, white boxplots) and anaerobic (–, coloured boxplots) conditions (see Methods). After” for “After”, “24-hour” for “either 24- or 72 h”, “aerobic” for “24-”, “anaerobic conditions; levamisole was used as a positive control in anaerobic conditions.” for “72 h treatments.”, “values. […]” for “values.”

[6] = screened at 50 μM in triplicate, hit = modified z-score < −3, KCN = KCN survival assay, Dev. & Viability = development/viability assay
[7] = screened at 50 μM in triplicate, […], KCN = KCN survival assay, Dev. & Viability = development/viability assay
[8] = adult H. polygyrus, in vitro, aerobic, 24 hours, per biological replicate
[9] = adult H. polygyrus, in vitro, aerobic, 72 hours, per biological replicate

`CCc1ccc(-c2cc(C(=O)Nc3nccs3)c3ccccc3n2)cc1` [STK418118] was tested, and the CC50 [1] was > 50 µM and the “Hit Type” value [2, 6] was “Dev. & Viability”.
For `COC(=O)Nc1nc2ccc(C(=O)c3cccs3)cc2[nH]1` [Nocodazole, reference compound], the “Hit Type” value [2, 7] was “Dev. & Viability”.
For `CC[C@@]1(O)C(=O)OCc2c1cc1n(c2=O)Cc2cc3ccccc3nc2-1` [Camptothecin, reference compound], the “Hit Type” value [2, 7] was “Dev. & Viability”.
With `COc1cccc2c1cc([N+](=O)[O-])c1c(C(=O)O)cc3c(c12)OCO3` [Aristolochic acid, reference compound] the “Hit Type” value [2] was “Dev. & Viability”.
In the case of `CN[C@@H]1C[C@H]2O[C@@](C)([C@@H]1OC)n1c3ccccc3c3c4c(c5c6ccccc6n2c5c31)C(=O)NC4` [Staurosporine, reference compound], the “Hit Type” value [2, 7] is reported as “Dev. & Viability”.
`Cc1ccc(N=c2cc(-c3ccc4c(c3)OCO4)oc3ccccc23)cc1C` [NPD601] was tested, and the LC50 [3] was 13.6 µM and the “Hit Type” value [2, 6] was “KCN”.
With `O=C(CCCN1C(=O)c2cccc3cccc(c23)C1=O)N1CCN(Cc2ccc3c(c2)OCO3)CC1` [HTD0465] the CC50 [1] was 20.5 µM and the “Hit Type” value [2, 6] was “Dev. & Viability”.
`Cc1nc2ccc(Br)cc2c2c1CC(C)O2` (racemic) [NP974] was tested, and the LC50 [3] was 19 µM and the “Hit Type” value [2, 6] was “KCN/Dev. & Viability”.
For `COc1ccc(N=c2cc(-c3ccc(OC)c(OC)c3)oc3ccccc23)c(OC)c1` [NPD6383], the LC50 [3] was 22.2 µM and the “Hit Type” value [2, 6] was “KCN”.
For `CCCC[C@@]1(OC(=O)CCC(=O)O)CC[C@]2(CC[C@H](C)[C@@H](C/C=C(C)/C=C/[C@H](O)[C@@H](C)/C=C/C(=O)O)O2)O[C@H]1/C=C/C(C)=C/C(=O)O` [Reveromycin A, reference compound], the “Hit Type” value [2, 7] was “Dev. & Viability”.
`CC(C)Cc1ccc(C(C)c2nc3ccccc3n2C)cc1` (racemic) [NPD87890] was tested, and the “Worm viability score of individual worm, scale from 0 (dead) to 3 (motile)” value (“Worm viability score of individual worm” for short) [4] was 1 and 0.5, the “Percent Worms Affected” value ([4]; adult H. polygyrus, aerobic, replicate 1, 24 hours after treatment, affected = score equal to or lower than 1.5) was 100% and the “# of Worms Affected” value [4, 8] was 3 and 6. For the same molecule, the “Percent Worms Affected (worms with a score equal to or lower than 1.5)” value [4, 8] was 50% and 100%, the “Worm viability score of individual worm” value ([4]; adult H. polygyrus, in vitro, aerobic, 24 hours, single worms) was 2 (2×) and 2.5 and 1.5 and 1 and 1.25 (5×) and the “# of Worms Affected” value [4, 9] was 5 and 6. The “Percent Worms Affected (worms with a score equal to or lower than 1.5)” value [4, 9] was 83% and 100%, the “Worm viability score of individual worm” value ([4]; adult H. polygyrus, in vitro, aerobic, 72 hours, single worms) was 2 and 1.5 and 1 (2×) and 0.5 and 0.75 (3×) and the “# of Worms Affected” value ([4]; aerobic, replicate 1, 24 hours after treatment, worms with score equal to or lower than 1.5) was 6. For the same molecule, the “Worm viability score, individual worms (Worm1-Worm20)” value (from here on “Worm viability score … (Worm1-Worm20)”) ([4]; aerobic, replicate 1, 24 hours after treatment) was 1.25 (5×) and 1, the “# of Worms Affected” value ([4]; aerobic, replicate 2, 24 hours after treatment, worms with score equal to or lower than 1.5) was 3 and the “Worm viability score … (Worm1-Worm20)” value ([4]; aerobic, replicate 2, 24 hours after treatment) was 2 (2×) and 2.5 and 1 (2×) and 1.5. The “Percent Worms Affected” value ([5]; replicate 1) was 100%, the “Percent Worms Affected” value ([5]; replicate 2) was 100% and the “# of Worms Affected” value ([5]; replicate 1) was 6. The “Worm viability score … (Worm1-Worm20)” value ([5]; replicate 1) was 0.5 (3×) and 0 (2×) and 1, the “# of Worms Affected” value ([5]; replicate 2) was 6 and the “Worm viability score … (Worm1-Worm20)” value ([5]; replicate 2) was 1.5 and 1 (5×).
`Cc1nc2ccc(Br)cc2c2c1CC(C(C)(Cl)Br)O2` (racemic) [NPD10211] was tested, and the LC50 [3] was 14.5 µM and the “Hit Type” value [2, 6] was “KCN/Dev. & Viability”.
In the case of `CC1(C#CCN2CCCCCC2)CCC2C(O1)c1ccccc1OC2(C)C` (stereo not drawn) [NPD5219], the CC50 [1] is reported as 14.8 µM and the “Hit Type” value [2, 6] is reported as “Dev. & Viability”.
For `COc1ccccc1/C=C/C(=O)c1cc(C)ccc1O` [NPD8582], the LC50 [3] was 14.7 µM and the “Hit Type” value [2, 6] was “KCN”.
